Reference: the supplement of paper PMC13380429

Tests used:
Caco-2 [1] = assay: drug sensitivity score (DSS) for viability; higher = more toxic; extreme values may be limits of the assay; conditions: 72 h
HepG2 [2] = assay: as above; conditions: 72 h
Calu-3 [3] = assay: as above; conditions: 72 h
Vero E6 [4] = assay: as above; conditions: 72 h
U2OS [5] = assay: as above; conditions: 72 h
[6] = tested on: A549-ACE2 infected with SARS-CoV-2; assay: SARS-CoV-2 infection rate relative to DMSO; higher = more infection; conditions: 24 h
Caco-2 [7] = assay: cell viability relative to DMSO; higher = less toxic; conditions: 72 h
HepG2 [8] = assay: as above; conditions: 72 h
Calu-3 [9] = assay: as above; conditions: 72 h
Vero E6 [10] = assay: as above; conditions: 72 h
U2OS [11] = assay: as above; conditions: 72 h
[12] = tested on: A549-ACE2 infected with SARS-CoV-2; assay: morphology score (similarity to uninfected cells); higher = more like uninfected cells; conditions: 24 h
[13] = tested on: A549-ACE2 infected with SARS-CoV-2; assay: cell count relative to DMSO; higher = less toxic; conditions: 24 h
Vero E6 [14] = assay: relative viability EC50 (midpoint between 100% and the lowest measured viability); higher = less toxic; conditions: 72 h
U2OS [15] = assay: as above; conditions: 72 h
A549-ACE2 [16] = assay: drug-induced phospholipidosis relative to tamoxifen; higher = more phospholipidosis
Caco-2 [17] = assay: relative viability EC50 (midpoint between 100% and the lowest measured viability); higher = less toxic; conditions: 72 h
HepG2 [18] = assay: as above; conditions: 72 h
Calu-3 [19] = assay: as above; conditions: 72 h
A549-ACE2 [20] = assay: phospholipidosis EC50; higher = less potent phospholipidosis inducer

C=C1C(=O)O[C@@H]2[C@H]3C(C)=CC[C@@]34O[C@@]4(C)CC[C@@H]12 [arglabin]
Conditions | drug sensitivity score | relative viability EC50 [nM]
Caco-2 [1] | 1.8 | –
Calu-3 [3] | 1.2 | –
HepG2 [2] | 2.5 | –
U2OS [5] | 0.6 | –
U2OS [15] | – | > 10000
Vero E6 [4] | 0 | –
Vero E6 [14] | – | > 10000

Conditions | SARS-CoV-2 infection rate, [6] [%] | cell count, [13] [%] | cell viability, Caco-2 [7] [%] | cell viability, Calu-3 [9] [%] | cell viability, HepG2 [8] [%] | cell viability, U2OS [11] [%] | cell viability, Vero E6 [10] [%] | morphology score, [12]
1 nM | – | – | 91.6 | 90.2 | 96.1 | 97.1 | 110 | –
10 nM | – | – | 97.8 | 99.8 | 92.2 | 102 | 99.2 | –
100 nM | – | – | 100 | 88.3 | 96.7 | 100 | 110 | –
0.3 µM | 105 | 96 | – | – | – | – | – | 0.02
1000 nM | – | – | 104 | 105 | 98.2 | 105 | 103 | –
3 µM | 94 | 100 | – | – | – | – | – | 0.01
10 µM | 95 | 78 | – | – | – | – | – | -0.15
10000 nM | – | – | 58.2 | 68 | 56.1 | 76.5 | 104 | –
30 µM | 33 | 36 | – | – | – | – | – | 0.3

drug-induced phospholipidosis [%], A549-ACE2 [16]
Conditions | 0.3 µM | 0.833333 µM | 3.33333 µM | 6.66667 µM | 10 µM | 30 µM
24 h | 2.94 | -0.34 | 2.52 | 0.97 | 8.21 | -1.1
48 h | 2.9 | 0.06 | 1.52 | 0.03 | 4.18 | –
72 h | 2.96 | -0.707 | 0.896 | 0.278 | 0.729 | –

C[C@H]1CCC/C=C/[C@@H]2C[C@H](O)C[C@H]2[C@H](O)/C=C/C(=O)O1 [brefeldin-A]
Conditions | drug sensitivity score | relative viability EC50 [nM]
Caco-2 [1] | 16.3 | –
Caco-2 [17] | – | 130
Calu-3 [3] | 24.5 | –
Calu-3 [19] | – | 55.5
HepG2 [2] | 25.6 | –
HepG2 [18] | – | 37.9
U2OS [5] | 26.8 | –
U2OS [15] | – | 61.2
Vero E6 [4] | 25.7 | –
Vero E6 [14] | – | 66

Conditions | SARS-CoV-2 infection rate, [6] [%] | cell count, [13] [%] | cell viability, Caco-2 [7] [%] | cell viability, Calu-3 [9] [%] | cell viability, HepG2 [8] [%] | cell viability, U2OS [11] [%] | cell viability, Vero E6 [10] [%] | morphology score, [12]
1 nM | – | – | 96.6 | 108 | 95.6 | 99.5 | 95.3 | –
10 nM | – | – | 89.7 | 97.1 | 96.6 | 99.3 | 101 | –
0.1 µM | 33 | 108 | – | – | – | – | – | 0.73
100 nM | – | – | 71.9 | 32.3 | 21.9 | 22.8 | 28.4 | –
0.3 µM | 42 | 52 | – | – | – | – | – | 0.14
1 µM | 16 | 38 | – | – | – | – | – | 0.32
1000 nM | – | – | 26.8 | 15.4 | 14.2 | 0.2 | 3.5 | –
3 µM | 30 | 35 | – | – | – | – | – | 0.26
10000 nM | – | – | 28.8 | 10.7 | 14.6 | 0.1 | 3.3 | –

A549-ACE2 [16], 24 h
Conditions | drug-induced phospholipidosis [%]
0.3 µM | -4.02
0.833333 µM | -5.26
3.33333 µM | -7.24
10 µM | -7

O=S(=O)(c1cccc2cnccc12)N1CCCNCC1 [fasudil]
Conditions | drug sensitivity score
Caco-2 [1] | 0
Calu-3 [3] | 0
HepG2 [2] | 0.7
U2OS [5] | 0
Vero E6 [4] | 0

[12]
Conditions | morphology score
0.3 µM | 0.21
3 µM | 0.17
10 µM | 0.3
30 µM | 0.09

CNCCC(Oc1ccc(C(F)(F)F)cc1)c1ccccc1 (stereo unspecified) [fluoxetine]
Conditions | drug sensitivity score
Calu-3 [3] | 0.3
HepG2 [2] | 1.6
U2OS [5] | 0
Vero E6 [4] | 0.2

Conditions | morphology score, 0.3 µM | morphology score, 3 µM | morphology score, 10 µM | morphology score, 30 µM | phospholipidosis EC50, 24 h [nM] | phospholipidosis EC50, 48 h [nM] | phospholipidosis EC50, 72 h [nM]
A549-ACE2 [20] | – | – | – | – | 7050 | 7620 | 7610
[12] | 0.06 | 0.65 | 0.87 | 0.74 | – | – | –
